Reference: ChEMBL document CHEMBL4765275, “Discovery of novel tertiary amide derivatives as NEDDylation pathway activators to inhibit the tumor progression in vitro and in vivo” (Eur J Med Chem, 2020)
The source made the active and inactive calls. No cut-off for these calls is given here.

Assays:
MGC-803 [1] = test: Induction of apoptosis in human MGC-803 cells assessed as upregulation of Fasl expression at 50 to 150 nmol/L measured after 48 hrs by Western blot analysis; format: functional, cell-based; settings: dose 50-150 nmol/L
MGC-803 [2] = test: Antiproliferative activity against human MGC-803 cells measured after 48 hrs by MTT assay; format: functional, cell-based
MCF7 = test: Antiproliferative activity against human MCF7 cells measured after 48 hrs by MTT assay; format: functional, cell-based; settings: MCF7, 48 h
PC-3 = test: Antiproliferative activity against human PC-3 cells measured after 48 hrs by MTT assay; format: functional, cell-based; settings: PC-3, 48 h
MGC-803 [3] = test: Induction of morphological changes in human MGC-803 cells assessed as nuclear condensation at 50 to 150 nmol/L measured after 48 hrs by DAPI staining based assay; format: functional, cell-based; settings: dose 50-150 nmol/L
MGC-803 [4] = test: Cell cycle arrest in human MGC-803 cells assessed as accumulation at S phase at 50 nmol/L measured after 48 hrs by propidium iodide staining based flow cytometry (reference value: 34.48%); format: functional
MGC-803 [5] = test: Cell cycle arrest in human MGC-803 cells assessed as accumulation at G2 phase at 50 nmol/L measured after 48 hrs by propidium iodide staining based flow cytometry (reference value: 24.91%); format: functional
MGC-803 [6] = test: Cell cycle arrest in human MGC-803 cells assessed as accumulation at G2 phase at 100 nmol/L measured after 48 hrs by propidium iodide staining based flow cytometry (reference value: 24.91%); format: functional
MGC-803 [7] = test: Cell cycle arrest in human MGC-803 cells assessed as accumulation at S phase at 150 nmol/L measured after 48 hrs by propidium iodide staining based flow cytometry (reference value: 34.48%); format: functional
MGC-803 [8] = test: Induction of apoptosis in human MGC-803 cells assessed as viable cells at 50 nmol/L measured after 48 hrs by Annexin V-FITC/propidium iodide staining based flow cytometry (reference value: 91.7%); format: functional; settings: read-out: Activity
MGC-803 [9] = test: Induction of apoptosis in human MGC-803 cells assessed as necrotic cells at 50 nmol/L measured after 48 hrs by Annexin V-FITC/propidium iodide staining based flow cytometry (reference value: 0.5%); format: functional
MGC-803 [10] = test: Induction of apoptosis in human MGC-803 cells assessed as viable cells at 100 nmol/L measured after 48 hrs by Annexin V-FITC/propidium iodide staining based flow cytometry (reference value: 91.7%); format: functional; settings: read-out: Activity
MGC-803 [11] = test: Induction of apoptosis in human MGC-803 cells assessed as late apoptotic cells at 100 nmol/L measured after 48 hrs by Annexin V-FITC/propidium iodide staining based flow cytometry (reference value: 5.6%); format: functional
MGC-803 [12] = test: Induction of apoptosis in human MGC-803 cells assessed as necrotic cells at 100 nmol/L measured after 48 hrs by Annexin V-FITC/propidium iodide staining based flow cytometry (reference value: 0.5%); format: functional
MGC-803 [13] = test: Induction of apoptosis in human MGC-803 cells assessed as viable cells at 150 nmol/L measured after 48 hrs by Annexin V-FITC/propidium iodide staining based flow cytometry (reference value: 91.7%); format: functional; settings: read-out: Activity
MGC-803 [14] = test: Induction of apoptosis in human MGC-803 cells assessed as early apoptotic cells at 150 nmol/L measured after 48 hrs by Annexin V-FITC/propidium iodide staining based flow cytometry (reference value: 2.2%); format: functional
MGC-803 [15] = test: Induction of apoptosis in human MGC-803 cells assessed as increase in cleaved PARP expression at 50 to 150 nmol/L measured after 48 hrs by Western blot analysis; format: functional, cell-based; settings: dose 50-150 nmol/L
MGC-803 [16] = test: Induction of apoptosis in human MGC-803 cells assessed as increase in activated caspase-8 expression at 50 to 150 nmol/L measured after 48 hrs by Western blot analysis; format: functional, cell-based; settings: dose 50-150 nmol/L
MGC-803 [17] = test: Induction of apoptosis in human MGC-803 cells assessed as upregulation of FADD expression at 50 to 150 nmol/L measured after 48 hrs by Western blot analysis; format: functional, cell-based; settings: dose 50-150 nmol/L
MGC-803 [18] = test: Induction of apoptosis in human MGC-803 cells assessed as upregulation of Bad expression at 50 to 150 nmol/L measured after 48 hrs by Western blot analysis; format: functional, cell-based; settings: dose 50-150 nmol/L
MGC-803 [19] = test: Induction of apoptosis in human MGC-803 cells assessed as down regulation of Bcl-xL expression at 50 to 150 nmol/L measured after 48 hrs by Western blot analysis; format: functional, cell-based; settings: dose 50-150 nmol/L
MGC-803 [20] = test: Induction of apoptosis in human MGC-803 cells assessed as down regulation of c-IAP1 expression at 50 to 150 nmol/L measured after 48 hrs by Western blot analysis; format: functional, cell-based; settings: dose 50-150 nmol/L
MGC-803 [21] = test: Antiproliferative activity against human MGC-803 cells assessed as cell viability measured after 48 hrs in presence of NEDDylation inhibitor MLN4924 by MTT assay relative to control; format: functional
MGC-803 [22] = test: Antiproliferative activity against human MGC-803 cells assessed as cell viability measured after 48 hrs by MTT assay relative to control; format: functional
[23] = target: T1, NEDD8-activating enzyme E1 regulatory subunit (Homo sapiens) (UniProt Q13564); test: Stabilization of NAE1 (unknown origin) at 150 nmol/L by CETSA; settings: filed as activator
T1 sequence (whole entry): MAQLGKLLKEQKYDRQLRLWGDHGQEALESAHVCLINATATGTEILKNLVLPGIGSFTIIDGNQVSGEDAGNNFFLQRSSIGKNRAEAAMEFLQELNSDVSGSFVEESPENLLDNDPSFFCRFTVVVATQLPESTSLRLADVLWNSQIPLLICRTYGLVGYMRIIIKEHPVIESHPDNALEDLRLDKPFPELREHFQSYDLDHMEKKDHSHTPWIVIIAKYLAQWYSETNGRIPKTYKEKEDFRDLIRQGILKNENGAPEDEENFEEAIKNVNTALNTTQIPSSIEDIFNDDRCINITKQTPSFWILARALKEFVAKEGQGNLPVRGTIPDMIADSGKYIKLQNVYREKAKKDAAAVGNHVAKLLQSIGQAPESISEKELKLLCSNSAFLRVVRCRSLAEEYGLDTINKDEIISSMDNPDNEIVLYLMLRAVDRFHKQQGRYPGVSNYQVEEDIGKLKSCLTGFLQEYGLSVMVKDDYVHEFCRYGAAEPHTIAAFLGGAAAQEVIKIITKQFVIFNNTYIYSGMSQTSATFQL

[24] = target: T1, NEDD8-activating enzyme E1 regulatory subunit (Homo sapiens); test: Activation of NAE1-mediated neddylation in human MGC-803 cells assessed as increase in Nedd8-[…] adduct formation at 50 to 150 nmol/L measured after 24 hrs by Western blot analysis; format: cell-based; settings: filed as activator, dose 50-150 nmol/L
MGC-803 [25] = test: Induction of apoptosis in human MGC-803 cells assessed as increase in cleaved PARP expression at 150 nmol/L measured after 24 hrs in presence of NEDDylation inhibitor MLN4924 by Western blot analysis; format: functional, cell-based
MGC-803 [26] = test: Induction of apoptosis in human MGC-803 cells assessed as down regulation of XIAP expression at 150 nmol/L measured after 24 hrs in presence of NEDDylation inhibitor MLN4924 by Western blot analysis; format: functional, cell-based
MGC-803 [27] = test: Induction of apoptosis in human MGC-803 cells assessed as down regulation of c-IAP1 expression at 150 nmol/L measured after 24 hrs in presence of protein synthesis inhibitor CHX by Western blot analysis; format: functional, cell-based

SMILES: COc1ccc(CN(C(=O)Cc2cccs2)c2cc(OC)c(OC)c(OC)c2)cc1
- Activity (MGC-803 [1]): Active
- Activity (MGC-803 [2]): Dose-dependent effect
- IC50 (MGC-803 [2]; MGC-803, 48 h): 90 nM
- IC50 (MCF7): 100 nM
- IC50 (PC-3): 1150 nM
- Activity (MGC-803 [3]): Active
- Activity (MGC-803 [4]): 27.68%
- Activity (MGC-803 [5]): 35.12%
- Activity (MGC-803 [6]): 36.03%
- Activity (MGC-803 [7]): 16.21%
- viability at 0.05 µM (MGC-803 [8]): 87.7%
- Activity (MGC-803 [9]): 0.6%
- viability at 0.1 µM (MGC-803 [10]): 32%
- Activity (MGC-803 [11]): 23.2%
- Activity (MGC-803 [12]): 2.5%
- viability at 0.15 µM (MGC-803 [13]): 8.6%
- Activity (MGC-803 [14]): 39.9%
- Activity (MGC-803 [15]): Active
- Activity (MGC-803 [16]): Active
- Activity (MGC-803 [17]): Active
- Activity (MGC-803 [18]): Active
- Activity (MGC-803 [19]): Active
- Activity (MGC-803 [20]): Active
- Activity (MGC-803 [21]): 64.2%
- Activity (MGC-803 [22]): 12.1%
- Activity [23]: Active
- Activity [24]: Active
- Activity (MGC-803 [25]): inactive
- Activity (MGC-803 [26]): Active
- Activity (MGC-803 [27]): Active
